According to the supplement of paper PMC11451515:

Tested on: SEM cells
Assay: cell viability relative to DMSO control; higher = less cytotoxic
Conditions: 48 h
Summary of the method: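 Viability is a per-plate percentage relative to DMSO wells, with cell-free wells as background. CellTiter-Glo One luminescence was read after 48 h at 37°C on 1536-well plates (5 μl) of NOMO1 or SEM (500 cells/well) or P12-Ichikawa (1000 cells/well) leukemia cells. The cells had been adapted for at least four passages in each medium and pin-dosed with library compounds in DMSO from 47 μM to 0.79 nM in 11 threefold steps.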

[1] = HPLM + 10% dialyzed FBS, 0.000781 µM
[2] = HPLM + 10% dialyzed FBS, 0.00234 µM
[3] = HPLM + 10% dialyzed FBS, 0.00702 µM
[4] = HPLM + 10% dialyzed FBS, 0.0211 µM
[5] = HPLM + 10% dialyzed FBS, 0.0632 µM
[6] = HPLM + 10% dialyzed FBS, 0.19 µM
[7] = HPLM + 10% dialyzed FBS, 0.569 µM
[8] = HPLM + 10% dialyzed FBS, 1.71 µM
[9] = HPLM + 10% dialyzed FBS, 5.12 µM
[10] = HPLM + 10% dialyzed FBS, 15.4 µM
[11] = HPLM + 10% dialyzed FBS, 46.1 µM
[12] = RPMI 5 mM glucose + 10% FBS, 0.000781 µM
[13] = RPMI 5 mM glucose + 10% FBS, 0.00234 µM
[14] = RPMI 5 mM glucose + 10% FBS, 0.00702 µM
[15] = RPMI 5 mM glucose + 10% FBS, 0.0211 µM
[16] = RPMI 5 mM glucose + 10% FBS, 0.0632 µM
[17] = RPMI 5 mM glucose + 10% FBS, 0.19 µM
[18] = RPMI 5 mM glucose + 10% FBS, 0.569 µM
[19] = RPMI 5 mM glucose + 10% FBS, 1.71 µM
[20] = RPMI 5 mM glucose + 10% FBS, 5.12 µM
[21] = RPMI 5 mM glucose + 10% FBS, 15.4 µM
[22] = RPMI 5 mM glucose + 10% FBS, 46.1 µM
[23] = RPMI 5 mM glucose + 10% dialyzed FBS, 0.000781 µM
[24] = RPMI 5 mM glucose + 10% dialyzed FBS, 0.00234 µM
[25] = RPMI 5 mM glucose + 10% dialyzed FBS, 0.00702 µM
[26] = RPMI 5 mM glucose + 10% dialyzed FBS, 0.0211 µM
[27] = RPMI 5 mM glucose + 10% dialyzed FBS, 0.0632 µM
[28] = RPMI 5 mM glucose + 10% dialyzed FBS, 0.19 µM
[29] = RPMI 5 mM glucose + 10% dialyzed FBS, 0.569 µM
[30] = RPMI 5 mM glucose + 10% dialyzed FBS, 1.71 µM
[31] = RPMI 5 mM glucose + 10% dialyzed FBS, 5.12 µM
[32] = RPMI 5 mM glucose + 10% dialyzed FBS, 15.4 µM
[33] = RPMI 5 mM glucose + 10% dialyzed FBS, 46.1 µM

Structure (SMILES)	cell viability [1] [%]	cell viability [2] [%]	cell viability [3] [%]	cell viability [4] [%]	cell viability [5] [%]	cell viability [6] [%]	cell viability [7] [%]	cell viability [8] [%]	cell viability [9] [%]	cell viability [10] [%]	cell viability [11] [%]	cell viability [12] [%]	cell viability [13] [%]	cell viability [14] [%]	cell viability [15] [%]	cell viability [16] [%]	cell viability [17] [%]	cell viability [18] [%]	cell viability [19] [%]	cell viability [20] [%]	cell viability [21] [%]	cell viability [22] [%]	cell viability [23] [%]	cell viability [24] [%]	cell viability [25] [%]	cell viability [26] [%]	cell viability [27] [%]	cell viability [28] [%]	cell viability [29] [%]	cell viability [30] [%]	cell viability [31] [%]	cell viability [32] [%]	cell viability [33] [%]
OC[C@H]1O[C@H](C[C@@H]1O)N2\C=C(\I)C(=O)NC2=O	86.1	99.2	97.3	93	99	113	117	88.2	95.3	74.7	69.6	97.1	110	104	107	102	113	101	110	101	77.8	66.5	90.9	92.5	92	99.9	98.4	109	84.3	64.3	60	49.2	39.4
CCC1=C2CN3C(=O)\C4=C(/C=C3/C2=NC5=CC=C(O)C=C15)[C@@](O)(CC)C(=O)OC4	96.7	95.6	91.4	28.1	19.3	17	11.6	6.74	6.74	6.36	4.6	108	102	67.7	25.6	15.6	16.1	12.9	6.76	7.58	5.69	5.1	94.5	89.1	65	28	16.6	15.2	12.8	6.01	7.69	5.69	4.62
N[S+](=O)([O-])c1cc2c(cc1Cl)NCN[S+]2(=O)[O-]	92.5	102	101	94.6	104	111	114	109	114	121	107	96.2	115	109	104	110	107	114	119	124	116	120	88.4	100	112	124	107	124	107	134	117	115	151
CON(C)C(=O)N1\N=C(/S[C@]1(CCCN)C2=CC=CC=C2)C3=CC(=CC=C3F)F	23.7	22.9	24.5	28.8	26.4	27.4	30.7	27	29.9	31.7	24.8	20.8	20.4	20.1	22.6	22.8	21.5	25.6	18.8	21.3	20.4	23.8	21.2	21.1	19.9	21	21.3	23.2	23.2	24.6	23.9	20.6	21.6
O=C(O)CCCc1ccc(N(CCCl)CCCl)cc1	96.5	108	112	119	120	129	125	136	120	102	55.5	95.7	91.8	126	122	114	126	121	119	124	101	20.2	97.4	113	120	111	128	129	133	122	137	113	36.8
Cc1n[nH]c2ccc(-c3cncc(OC[C@@H](N)Cc4c[nH]c5ccccc45)c3)cc12	98.9	104	89.8	97.8	83.7	40.6	32.9	19.2	2.11	0.908	1.79	94.9	111	88.6	102	95.7	67	59.7	25	2.35	0.602	1.49	103	99.4	84.2	92.3	89	56.1	47.7	26.6	2.83	0.892	1.9
CN1C(=O)C(=C/2N(C(=O)N(C3CC3)C(=O)C2=C1/NC4=CC=C(I)C=C4F)C5=CC=CC(=C5)NC(C)=O)\C	–	–	–	–	–	–	–	–	–	–	–	107	129	118	129	136	114	85.6	60.1	7.99	4.7	4.99	–	–	–	–	–	–	–	–	–	–	–
O=C(O)C(=O)Nc1cccc(-c2nnn[nH]2)c1	90.2	98.2	108	112	109	116	76.4	122	132	128	119	91.3	112	114	104	106	106	75.5	119	120	110	117	98.8	101	111	116	119	105	81.5	119	132	107	102
